Patent US20250120988A1, “SMALL MOLECULE COMPOUND FOR TREATING ISCHEMIC STROKE, ITS PREPARATION METHOD, AND APPLICATION” (SHANGHAI SIXTH PEOPLE'S HOSPITAL, priority 2023, published 2025)

Assays:
ASIC1a = molecular target: T1, ASIC1a (Homo sapiens, UniProt P78348); test: Whole-cell patch clamp, competitive blocking of glutamate-potentiated ASIC1a current in CHO cells; assay type: cell-based; conditions: pH 7.0, 500 μM glutamate, read-out: IC50 of competitive antagonism against the glutamate binding ASIC1a current
T1 construct: expressed in transfected cells
T1 sequence (P78348 1-528): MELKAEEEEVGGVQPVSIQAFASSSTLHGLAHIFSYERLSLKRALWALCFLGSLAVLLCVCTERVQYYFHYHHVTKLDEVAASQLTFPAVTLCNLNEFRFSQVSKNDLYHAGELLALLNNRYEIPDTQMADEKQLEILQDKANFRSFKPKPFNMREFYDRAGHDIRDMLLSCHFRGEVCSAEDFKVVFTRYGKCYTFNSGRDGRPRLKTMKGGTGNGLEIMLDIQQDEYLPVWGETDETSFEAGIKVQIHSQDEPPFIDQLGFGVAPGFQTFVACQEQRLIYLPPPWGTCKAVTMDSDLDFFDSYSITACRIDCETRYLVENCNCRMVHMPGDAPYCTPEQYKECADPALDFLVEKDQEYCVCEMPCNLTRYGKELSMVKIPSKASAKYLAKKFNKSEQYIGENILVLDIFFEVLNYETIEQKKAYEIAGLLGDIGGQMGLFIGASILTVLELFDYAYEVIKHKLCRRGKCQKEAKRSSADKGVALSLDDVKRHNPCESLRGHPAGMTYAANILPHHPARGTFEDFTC
Experimental: Figure a illustrates the LK-2 concentration-dependent blocking of signal of ASIC1a current (recorded from the same CHO cell) activated at pH 7 in patch clamp experiments, with a glutamate concentration of 500 μM and LK-2 concentrations of 1, 10, 50, and 100 μM in sequence. […] Smaller values indicate stronger blocking effects of the compound.
[drawing 3] • 2. Electrophysiological experiments refer to the use of patch clamp techniques to overexpress ASICs (ASIC1a) and NMDARs (GluNR1+NR2A or GluNR1+NR2B) in CHO cell lines (Chinese hamster ovary cells), with the above-mentioned proteins carrying GFP green fluorescent protein for identification under fluorescence microscopy. The synthesized small molecules are separately tested for their blocking effects on the currents generated by the two types of receptors, and the IC50 values are calculated. • 2.1 The experimental steps of the membrane clamp technique are as follows. […]
Chinese hamster ovary cells (CHO) and HEK293T cells (provided by the Chinese Academy of Sciences Stem Cell Bank) were cultured separately in F12 and DMEM media (Gibco) containing 10% FBS (Gibco). […] All experiments were performed 24-48 hours after transfection, and all culture dishes were washed three times with ECF before the experiment, and GFP-positive CHO cells were observed under a fluorescence microscope for patch clamp recording. […]

GluN1+NR2B = molecular target: T2, GluN1+NR2B (Homo sapiens, UniProt Q05586+Q13224); test: Whole-cell patch clamp, blocking of GluN1+NR2B NMDAR current in CHO cells; assay type: cell-based; conditions: 100 μM NMDA and 1 μM glycine, read-out: IC50 of competitive antagonism against glutamate binding GluN1+NR2B currents
T2 construct: expressed in transfected cells; host or cells: CHO cells
Experimental: Figure a illustrates LK-2 concentration-dependent blocking of signal of GluN1+GluN2A and GluN1+GluN2B subtypes of NMDAR currents (recorded from the same CHO cell) in patch clamp experiments, with 100 μM NDMA and 1 μM glycine used to activate NMDAR currents. LK-2 concentrations were 1, 10, 100, and 500 μM in sequence. Figure b illustrates the dose-response curves fitted based on the current amplitudes recorded in Figure a, with IC50 representing the half-maximal inhibitory concentration. Smaller IC50 values indicate stronger blocking effects of the compound.
[drawing 3] • 2. Electrophysiological experiments refer to the use of patch clamp techniques to overexpress ASICs (ASIC1a) and NMDARs (GluNR1+NR2A or GluNR1+NR2B) in CHO cell lines (Chinese hamster ovary cells), with the above-mentioned proteins carrying GFP green fluorescent protein for identification under fluorescence microscopy. The synthesized small molecules are separately tested for their blocking effects on the currents generated by the two types of receptors, and the IC50 values are calculated. • 2.1 The experimental steps of the membrane clamp technique are as follows.
Whole-cell patch clamp recordings were performed on neurons or CHO cells cultured in a cell-culture dish mounted on a fixed stage upright microscope. The recording electrode (resistance 4-6 MΩ) was made of 1.5 mm borosilicate glass. […]

T2 sequence (Q13224 27-1484, other chains not shown): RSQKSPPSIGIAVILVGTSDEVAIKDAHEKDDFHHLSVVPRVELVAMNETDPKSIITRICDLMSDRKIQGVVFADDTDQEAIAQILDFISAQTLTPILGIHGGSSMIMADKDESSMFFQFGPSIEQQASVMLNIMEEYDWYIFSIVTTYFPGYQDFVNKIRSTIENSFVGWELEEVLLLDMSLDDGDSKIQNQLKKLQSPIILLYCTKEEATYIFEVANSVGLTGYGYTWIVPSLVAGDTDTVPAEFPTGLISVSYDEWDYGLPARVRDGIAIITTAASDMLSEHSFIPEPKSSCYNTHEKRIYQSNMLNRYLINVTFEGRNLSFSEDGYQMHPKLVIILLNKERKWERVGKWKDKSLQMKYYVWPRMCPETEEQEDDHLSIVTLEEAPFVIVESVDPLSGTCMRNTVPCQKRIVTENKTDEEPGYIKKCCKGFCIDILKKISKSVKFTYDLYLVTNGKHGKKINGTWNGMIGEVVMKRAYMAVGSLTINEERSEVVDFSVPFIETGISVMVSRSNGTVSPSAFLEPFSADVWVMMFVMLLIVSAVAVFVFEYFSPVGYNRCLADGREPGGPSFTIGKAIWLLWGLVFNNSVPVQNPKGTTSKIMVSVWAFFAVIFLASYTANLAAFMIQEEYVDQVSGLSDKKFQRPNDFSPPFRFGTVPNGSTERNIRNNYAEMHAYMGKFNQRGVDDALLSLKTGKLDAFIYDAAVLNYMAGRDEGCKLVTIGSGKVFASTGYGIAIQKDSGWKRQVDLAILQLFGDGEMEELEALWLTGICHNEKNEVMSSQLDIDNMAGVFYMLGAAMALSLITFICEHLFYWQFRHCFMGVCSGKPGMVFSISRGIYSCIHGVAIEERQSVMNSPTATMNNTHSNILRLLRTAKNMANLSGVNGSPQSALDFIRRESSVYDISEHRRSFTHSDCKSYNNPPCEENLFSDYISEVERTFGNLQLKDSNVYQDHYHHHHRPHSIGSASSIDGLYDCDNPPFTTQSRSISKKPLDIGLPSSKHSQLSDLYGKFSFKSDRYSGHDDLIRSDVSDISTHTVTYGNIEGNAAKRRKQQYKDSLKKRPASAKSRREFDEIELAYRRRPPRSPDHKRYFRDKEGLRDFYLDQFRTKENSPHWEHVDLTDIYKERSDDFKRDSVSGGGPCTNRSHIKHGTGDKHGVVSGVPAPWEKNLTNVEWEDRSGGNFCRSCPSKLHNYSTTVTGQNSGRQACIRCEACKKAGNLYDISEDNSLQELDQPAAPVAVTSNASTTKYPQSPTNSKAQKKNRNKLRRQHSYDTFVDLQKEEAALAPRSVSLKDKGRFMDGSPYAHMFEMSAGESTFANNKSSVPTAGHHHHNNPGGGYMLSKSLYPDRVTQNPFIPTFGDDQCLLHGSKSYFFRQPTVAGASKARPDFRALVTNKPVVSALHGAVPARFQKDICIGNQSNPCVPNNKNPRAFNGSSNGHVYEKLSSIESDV

Question: With `O=C(O)C1CN(C(c2ccccc2)P(=O)(O)O)CCN1` (centres unmarked) [LK-2] as the molecule, how does the IC50 (ASIC1a) read?
Answer: 6.6 ± 2.1 µM

Question: What about the IC50 (GluN1+NR2B) of the same molecule?
Answer: 386 ± 109 µM
